Results reported in patent US10329317B2, “Quinoline derivative for use in the treatment and prevention of viral infections” (ABIVAX, priority 2015, dated 2019).
Read-outs that look alike come from different tables or passages of the source.

Legend:
[1] = Solubility compared with Compound 2 (statement only); type: physicochemical
[2] = First-in-man PK: compound (1) plasma levels after single oral ascending dose of compound (2); type: in vivo, human; details: for AUC(0-t) / AUC(0-inf) / Cmax / half-life / Tmax: male, human, plasma; for AUC(0-t) / AUC(0-inf) / Cmax / half-life: po; for Tmax: read-out: tmax, median
Protocol: The present document details the pharmacokinetic (PK) results obtained in a first-in-man study with compound (2) consisting in a single oral ascending dose in healthy male subjects. Four (4) dose levels were investigated (50, 100, 150, and 200 mg).
At each dose level, 6 subjects were included and received a single oral dose of compound (2) so that a total of 24 subjects participated to the study and completed it. No study deviation was identified at the time of the PK analysis and thus, all subjects were included in the PK analysis.
In this study, plasma levels of compound (1) were measured.
PK blood sampling was initially defined up to 48 h post-dose.
Blood samples for assessment of compound (1) plasma levels are scheduled at the following time points: • Day 1 pre-dose, 0.33, 0.66, 1.00, 1.50, 2.00, 2.50, 3.00, 4.00, 6.00, 8.00, 10.00, and 12.00 h post-dose; • Day 2 24.00 and 36.00 h post-dose; • Day 3 48.00 h post-dose; • Day 10 240 h post-dose; • Day 24 576 h post-dose; • Day 45 1080 h post-dose.
Plasma concentrations were processed throughout the PK software for PK data generation. The PK parameters were calculated by non-compartmental analysis (NCA), using Phoenix® WinNonlin® (Pharsight Corporation) running on a personal computer.
For the calculation of the PK parameters and characteristics the following rules were applied: • All the plasma concentrations validated provided to the pharmacokineticist were used for the PK analysis. • The actual blood sampling time points related to the preceding administration was used. • At time points in the lag-time between time zero and the first concentration equal or above limit of quantification (LOQ), concentrations below LOQ were set to zero (0). Concentrations below limit of quantification (BLOQ) between 2 concentrations equal or above LOQ were considered as missing data. Trailing concentrations BLOQ were used in calculations. • If pre-dose concentration was missing, it was arbitrary set to zero (0) assuming that expected results would have been BLOQ.
For each subject receiving the active treatment in each cohort, the following PK parameters of compound (1) were to be derived:
Cmax The observed maximum concentration measured in plasma was obtained directly from the concentration-time data.
tmax The time at which Cmax was apparent, identified by inspection of the plasma drug concentration vs. time data by Phoenix® WinNonlin®.
AUC0-t The area under the concentration-time curve from time zero (pre-dose) to the time of last quantifiable concentration was calculated using a linear trapezoidal method.
ke The terminal plasma elimination rate-constant was estimated from log-linear regression analysis of the terminal phase of the plasma concentration-time profile. The number of points included in the terminal phase was determined by visual inspection of the semi-log plots of the plasma concentration-time profiles (at least 3). AUC0-∞ The AUC from time 0 to infinity was calculated as AUC0-∞=AUC0-t+AUCt-∞, where AUC0-t is the area under the concentration-time curve from time zero (pre-dose) to the time of last quantifiable concentration calculated using a […] trapezoidal method and AUCt-∞=Ct/ke, where Ct is the measured concentration at time of the last quantifiable concentration t. The extrapolated part of AUC0-∞ must be <20% for the value to be considered as reliable. t1/2 The apparent terminal elimination half-life was calculated as ln 2/ke, where ke is the elimination rate constant during the terminal phase determined by the log-linear regression obtained on at least the 3 last quantifiable concentrations and using actual blood sampling times. The correlation coefficient for the goodness of the fit of the regression line through the data points must be 0.8500 or higher, for the value to be considered reliable.

HIV-1 strain YU2 = test: HIV-1 production (p24 ELISA) in infected monocyte derived macrophages; type: cell-based
Protocol: HIV-1 strain YU2 was used to infect monocyte derived-macrophages from three different donors (donors 349, 350 and 351; respectively FIGS. 2A, 2B, and 2C panel) in the presence of increasing concentrations of the (glucuronidated) Compound 1, at 1.5 μM, 10 μM and 30 μM. The viral capsid protein p24 antigen was quantitated using standard ELISA protocol (expressed in pg/mL in y-axis). R-10 corresponds to untreated cells. […] To generate monocyte derived macrophages (MDMs), monocytes were isolated using CD14 microbeads (catalog no. 130-050-201; Miltenyi) and cultured in X-VIVO10 medium (Lonza) supplemented with GM-CSF 1000 U/ml and M-CSF 100 ng/ml for 6 days. Monocytes were seeded at a cell count of 50′000 cells per well in a 96 well plate. After 6 days medium was replaced with X-VIVO10 w/o Cytokines. After 2 days Macrophages were treated with Compound (1) o/n and next day infected with Yu-2 virus for 6 hrs, washed with PBS and cultured in medium containing the compounds for 12 days. Supernatant for p24 Elisa was collected 2 times a week. Cells were treated with 1.5 μM up to 30 μM and p24 antigen levels were monitored in culture supernatant over a 12 day period (R-10 corresponds to untreated cells) (FIG. 2).

With `O=C(O)[C@H]1O[C@@H](N(c2ccc(OC(F)(F)F)cc2)c2ccc3cccc(Cl)c3n2)[C@H](O)[C@@H](O)[C@@H]1O` [Compound 1, N-β-glucuronide of 8-chloro-N-(4-(trifluoromethoxy)phenyl)quinolin-2-amine] the “solubility relative to Compound 2” value [1] was “more soluble”, the “compound (1) plasma concentrations versus parent drug” value ([2]; after single oral compound (2), regardless of the dose) was “markedly higher” and the AUC(0-t) ([2]; 50 mg, 50 mg compound (2) single oral, N=6, read-out: AUC0-t, GM (geometric mean)) was 196 µg·h/mL. For the same compound, the AUC(0-t) ([2]; 50 mg, 50 mg compound (2) single oral, N=6, read-out: AUC0-t, Mean) was 209 µg·h/mL, the AUC(0-inf) ([2]; 50 mg, 50 mg compound (2) single oral, N=6, read-out: AUC0-∞, GM (geometric mean)) was 198 µg·h/mL and the AUC(0-inf) ([2]; 50 mg, 50 mg compound (2) single oral, N=6, read-out: AUC0-∞, Mean) was 212 µg·h/mL. For the same compound, the Cmax ([2]; 50 mg, 50 mg compound (2) single oral, N=6, read-out: Cmax, GM (geometric mean)) was 2540 ng/mL, the Cmax ([2]; 50 mg, 50 mg compound (2) single oral, N=6, read-out: Cmax, Mean) was 2630 ng/mL and the half-life ([2]; 50 mg, 50 mg compound (2) single oral, N=6, read-out: t1/2, GM (geometric mean) (converted)) was 95.7 h. It also gave a half-life ([2]; 50 mg, 50 mg compound (2) single oral, N=6, read-out: t1/2, Mean (converted)) of 97.3 h, an AUC(0-t) ([2]; 100 mg, 100 mg compound (2) single oral, N=6, read-out: AUC0-t, GM (geometric mean)) of 468 µg·h/mL and an AUC(0-t) ([2]; 100 mg, 100 mg compound (2) single oral, N=6, read-out: AUC0-t, Mean) of 499 µg·h/mL. For the same compound, the AUC(0-inf) ([2]; 100 mg, 100 mg compound (2) single oral, N=6, read-out: AUC0-∞, GM (geometric mean)) was 476 µg·h/mL, the AUC(0-inf) ([2]; 100 mg, 100 mg compound (2) single oral, N=6, read-out: AUC0-∞, Mean) was 505 µg·h/mL and the Cmax ([2]; 100 mg, 100 mg compound (2) single oral, N=6, read-out: Cmax, GM (geometric mean)) was 5400 ng/mL. For the same compound, the Cmax ([2]; 100 mg, 100 mg compound (2) single oral, N=6, read-out: Cmax, Mean) was 5720 ng/mL, the half-life ([2]; 100 mg, 100 mg compound (2) single oral, N=6, read-out: t1/2, GM (geometric mean) (converted)) was 111 h and the half-life ([2]; 100 mg, 100 mg compound (2) single oral, N=6, read-out: t1/2, Mean (converted)) was 111 h. For the same compound, the AUC(0-t) ([2]; 150 mg, 150 mg compound (2) single oral, N=6, read-out: AUC0-t, GM (geometric mean)) was 560 µg·h/mL, the AUC(0-t) ([2]; 150 mg, 150 mg compound (2) single oral, N=6, read-out: AUC0-t, Mean) was 659 µg·h/mL and the AUC(0-inf) ([2]; 150 mg, 150 mg compound (2) single oral, N=6, read-out: AUC0-∞, GM (geometric mean)) was 563 µg·h/mL. It also gave an AUC(0-inf) ([2]; 150 mg, 150 mg compound (2) single oral, N=6, read-out: AUC0-∞, Mean) of 664 µg·h/mL, a Cmax ([2]; 150 mg, 150 mg compound (2) single oral, N=6, read-out: Cmax, GM (geometric mean)) of 8270 ng/mL and a Cmax ([2]; 150 mg, 150 mg compound (2) single oral, N=6, read-out: Cmax, Mean) of 9240 ng/mL. The half-life ([2]; 150 mg, 150 mg compound (2) single oral, N=6, read-out: t1/2, GM (geometric mean) (converted)) was 95.7 h, the half-life ([2]; 150 mg, 150 mg compound (2) single oral, N=6, read-out: t1/2, Mean (converted)) was 99.2 h and the AUC(0-t) ([2]; 200 mg, 200 mg compound (2) single oral, N=6, read-out: AUC0-t, GM (geometric mean)) was 436 µg·h/mL. For the same compound, the AUC(0-t) ([2]; 200 mg, 200 mg compound (2) single oral, N=6, read-out: AUC0-t, Mean) was 559 µg·h/mL, the AUC(0-inf) ([2]; 200 mg, 200 mg compound (2) single oral, N=6, read-out: AUC0-∞, GM (geometric mean)) was 438 µg·h/mL and the AUC(0-inf) ([2]; 200 mg, 200 mg compound (2) single oral, N=6, read-out: AUC0-∞, Mean) was 560 µg·h/mL. The Cmax ([2]; 200 mg, 200 mg compound (2) single oral, N=6, read-out: Cmax, GM (geometric mean)) was 5900 ng/mL, the Cmax ([2]; 200 mg, 200 mg compound (2) single oral, N=6, read-out: Cmax, Mean) was 7910 ng/mL and the half-life ([2]; 200 mg, 200 mg compound (2) single oral, N=6, read-out: t1/2, GM (geometric mean) (converted)) was 87.8 h. The half-life ([2]; 200 mg, 200 mg compound (2) single oral, N=6, read-out: t1/2, Mean (converted)) was 89.5 h, the half-life ([2]; healthy male subjects, single oral 50 to 200 mg compound (2), read-out: elimination half life (t1/2) (converted)) was ~100 h and the Tmax ([2]; 50 mg compound (2) single oral, N=6) was 4 h. The Tmax ([2]; 100 mg compound (2) single oral, N=6) was 4 h, the Tmax ([2]; 150 mg compound (2) single oral, N=6) was 4 h and the Tmax ([2]; 200 mg compound (2) single oral, N=6) was 6 h. For the same compound, the “time of first quantifiable compound (1) concentration” value ([2]; post-dose, 20 subjects out of 24) was ~40 min, the inhibition at 30 µM (HIV-1 strain YU2; Human immunodeficiency virus 1, Primary macrophage, 288 h, primary macrophages, 30 μM, 12 day period, read-out: inhibition of virus replication (p24 antigen in culture supernatant)) was ≤ 60% and the toxicity (HIV-1 strain YU2; macrophages, 1.5 μM up to 30 μM) was “low toxicity”.
